Legend:
Gardnerella vaginalis [1] = test: Optical density after 24 hours (Example 13); format: cell-based; conditions: 1.0% (wt/vol) in growth medium pH 6.0, after 24 hours (FIG. 12)
Procedure: A growth medium for Gardnerella vaginalis was prepared according to the manufacturer's instructions, and the pH of this medium was adjusted to pH 6.0 using 1N HCl. D-ribose (99%, Calbiochem), D-arabinose (98%, Alfa Aesar), D-xylose (Aldrich), D-lyxose (99%, Avovado), D-arabitol (97%, Alfa Aesar), adonitol (99%, Alfa Aesar), xylitol (99%, Alfa Aesar), xylitol (98%, Danisco), and xylitol (98%, Aldrich) were then dissolved into the growth medium at a concentration of 1.0% (wt/vol). 0.9 milliliters of the culture medium was also added into a different culture tube as a control. Thereafter, 0.1 milliliter of Garnerella vaginalis culture suspension (concentration of 1×10^6/milliliter) was added to each of the culture tubes, and then incubated overnight at 37° C., and the optical density was then measured after 24 hours at a wavelength of 595 nanometers. This was accomplished by pipetting 100 microliters of the control or sample solutions into 96-well microplates, and then using a ThermoMax Microplate Reader from Molecular Devices of Sunnyvale, Calif. to obtain the optical density readings. The results are depicted in FIG. 12.

Gardnerella vaginalis [2] = test: Average plate count after 24 hours with gel compositions and solutions (Example 8); format: cell-based; conditions: 1 ml sample + 0.8 ml growth medium + 0.2 ml suspension, 24 hours at 37° C., triplicate, compositions per Table 8
Procedure: Samples 1-2 were prepared by dissolving the KELCOGEL® (0.07 grams) and/or xylitol (0.44 grams) into 10 milliliters of water heated to between 70° C. to 80° C. Samples 3-4 and 6 were formed by first autoclaving a gallic acid stock solution (0.75 grams of gallic acid/20 mL water), autoclaving, and then adding 200 microliters of sterile gallic acid (0.0075 grams) to each sterile solution. Sample 5 was formed by dissolving 0.44 grams of xylitol in deionized water, followed by autoclaving. Sample 7 was formed by dissolving 0.44 grams of xylitol in sterilized growth medium for Gardnerella vaginalis and then filtering. The amount of xylitol was selected to yield isotonic solutions. After vortexing the solutions to help dissolve the solids, they were allowed to cool to room temperature.
Upon formation, 1 milliliter of each control or sample solution was then added into a culture tube, followed by the addition of 0.8 milliliters of growth medium for Gardnerella vaginalis. To this mixture was added 0.2 milliliters of a Gardnerella vaginalis suspension (at a concentration of around 10^6 cfu/ml; diluted from 10^8 cfu/ml stock). The tubes were incubated in culture tubes at 37° C. After 24 and 48 hours, the optical density was measured for each sample at wavelengths of 450 and 595 nanometers. The 24-hr solution samples were then diluted at 0.001× and 0.0001×. 3 milliliters of growth medium were then added into the 24-hour composition samples, followed by 1 hour of shaking at 30° C. Solution was then taken from well-shaken test tubes and diluted at 0.001× and 0.0001×. “WASP” (Whitely Automatic Spiral Plate) spiral plating equipment from Don Whitely Scientific Limited was used to plate 100 microliters of the above solutions onto agar plates. The plates were incubated overnight at 35° C. The number of colonies on each plate was counted using ProtoCol® software from Synbiosis of Frederick, Md. All samples were plated in triplicate.

Gardnerella vaginalis [3] = test: Zone of inhibition on agar plates (Examples 1 and 4); format: cell-based; conditions: 10%, tested as in Example 1
Procedure: Gardnerella vaginalis was obtained from the American Type Culture Collection (ATCC #14018). The culture medium was Casman's medium base (BD 229010) with 5% rabbit blood (ATCC medium 70).
A microorganism culture of 10^5cfu (colony forming units)/ml in a 1× phosphate buffered saline (PBS) solution (diluted from 10× PBS LIQUID CONCENTRATE from VWR Cat. No. EM-6507] was used. One milliliter of the solution was plated on proper agar plates, depending on which microorganism was being tested. The agar plates were incubated at 35° C. for 4 hours. Three 4-millimeter diameter wells were then punched in each agar plate. […] No. 28390, Pierce Biotechnology, Inc., Rockford, Ill.) was added to one well of each plate. Into each of the other two wells were added MES buffer and 1% benzyl quats (diluted from BARDAC® 205M, from Lonza Inc., Fair Lawn, N.J.) as negative and positive controls, respectively. The plates were incubated overnight at 35° C.
The following day, the “zone of inhibition” for each sample was then measured for Gardnerella vaginalis and Lactobacillus acidophilus activity. The “zone of inhibition” is a circular zone formed around the agar plate in which the growth of the microorganism is inhibited. Absent treatment with an effective antimicrobial agent, the bacterial cells would normally produce an opaque lawn of growth. However, when growth is inhibited, a clear zone is observed. […]

[4] = tested on: Lactobacillus acidophilus; test: as above; format: cell-based; conditions: 10%, tested as in Example 1
Procedure: Lactobacillus acidophilus was obtained from the American Type Culture Collection (ATCC #4356). The culture medium was Lactobacilli MRS broth (ATCC medium 416).
A microorganism culture of 10^5cfu (colony forming units)/ml in a 1× phosphate buffered saline (PBS) solution (diluted from 10× PBS LIQUID CONCENTRATE from VWR Cat. No. EM-6507] was used. One milliliter of the solution was plated on proper agar plates, depending on which microorganism was being tested. The agar plates were incubated at 35° C. for 4 hours. Three 4-millimeter diameter wells were then punched in each agar plate. A test sample of 100 microliters of 5% xylitol in sterilized 2-N-morpholino ethane sulfonic buffer (0.1 M 2-[morpholino]-ethanesulfonic acid, 0.9% NaCl, pH 4.7, prepared from BupH™ MES Buffer Saline Pack from Cat. No. 28390, Pierce Biotechnology, Inc., Rockford, Ill.) was added to one well of each plate. Into each of the other two wells were added MES buffer and 1% benzyl quats (diluted from BARDAC® 205M, from Lonza Inc., Fair Lawn, N.J.) as negative and positive controls, respectively. The plates were incubated overnight at 35° C.
The following day, the “zone of inhibition” for each sample was then measured for Gardnerella vaginalis and Lactobacillus acidophilus activity. The “zone of inhibition” is a circular zone formed around the agar plate in which the growth of the microorganism is inhibited. […]

Candida albicans = test: Viable cell count after 24 hours (Example 12); format: cell-based; conditions: xylitol 1%, 2%, 3%, 4%, 5.0% (wt/vol) in YM medium pH 6.0, after 24 hours (FIG. 11)
Procedure: A YM culture medium was prepared according to the manufacturer's instructions, and the pH of this medium was adjusted to pH 6.0 using 1N HCl. Xylitol was then dissolved into the YM medium at concentrations of 1%, 2%, 3%, 4%, and 5.0% (wt/vol). 0.9 milliliters of the culture medium were also added into a different culture tube as a control. Thereafter, 0.1 milliliter of Candida albicans culture suspension (concentration of 1×10^6/milliliter) was added to each of the culture tubes, and then incubated at 37° C. The viable Candida albicans cells in each tube were counted under a microscope after 24 hours. The above procedure was repeated four times for each concentration and the control.

[5] = pH and gelation properties of acid-modified KELCOGEL/xylitol solutions (Example 5); format: physicochemical; conditions: 4.4% (wt/vol) xylitol in 0.7% KELCOGEL solutions
Procedure: Solutions were formed from xylitol and a gellan gum obtained from CP Kelco U.S., Inc. of Chicago, Ill. under the name KELCOGEL®. The solutions contained 0.7% (wt/vol) of the KELCOGEL® gum and 4.4% (wt/vol) xylitol, and were formed by dissolving 0.07 grams of the polymer powder and 0.44 grams of xylitol into 10 milliliters of water at a temperature between 70° C. to 80° C. After vortexing the solutions to help dissolve the solids, they were allowed to cool to room temperature. After cooling, the pH of the solutions was adjusted using varying amounts of either acetic acid or lactic acid.

Trichomonas vaginalis = test: Viable cell count under microscope (Example 10); format: cell-based; conditions: for Trichomonas vaginalis cell count in comparison to the control group: xylitol 0.5%, 3.0%, 5.0%
Procedure: Trichomonas vaginalis was obtained from the American Type Culture Collection (ATCC #30001). The culture medium was LYI-S-2 medium (ATCC medium 2154). A sterile LYI-S-2 medium was prepared according to the manufacturer's instructions, and the pH of this medium was adjusted to pH 6.0 using 1 N HCl. Xylitol was then dissolved into the LYI-S-2 medium at concentrations of 0.5%, 3.0%, and 5.0% (wtvol). 0.9 milliliters of xylitol and culture medium (as control) were also added into different culture tubes. Thereafter, 0.1 milliliter of Trichomonas vaginalis culture suspension (concentration of 1×10^6/milliliter) was added to each of the culture tubes, and then incubated at 35° C. on a 15 degree horizontal slant. The viable Trichomonas vaginalis cells in each tube were counted under a microscope after 24 and 48 hours. The above procedure was repeated four times for each concentration of xylitol and the control.

[6] = tested on: Lactobacillus acidophilus; test: Optical density of culture tubes (Example 2); format: cell-based; conditions: 2, 4, 6 and 24 hours at 37° C., n=4
Procedure: (§1) Test compounds were dissolved in culture media to form a suspension. Control or xylitol solutions (0.9 milliliters) were filtered and added into culture tubes, and to this was added 0.1 milliliter of either the Gardnerella vaginalis or Lactobacillus acidophilus suspension at a concentration of around 10^6 cfu/milliliter. The culture tubes were then incubated overnight at 37° C., whereafter the optical density was measured at 2, 4, 6 and 24 hours by pipetting 100 microliters of the control or sample solutions into 96-well microplates, and then using a ThermoMax Microplate Reader (Molecular Devices of Sunnyvale, Calif.) to obtain the optical density readings at 590 or 600 nm wavelengths. […] The inhibition effect remained evident throughout the 24-hour experimental period.

Gardnerella vaginalis [7] = test: Optical density of culture tubes (Example 2); format: cell-based; conditions: 2, 4, 6 and 24 hours at 37° C., n=4
Procedure: as §1

[8] = tested on: Lactobacillus acidophilus; test: Plate count after 6 hours treatment (Example 3); format: cell-based; conditions: for Plate Count, L. acidophilus: 6 hours at 37° C., n = 4
Procedure: (§2) Test compounds were dissolved in culture media to form a suspension. Control or xylitol solutions (0.9 milliliters) were filtered and added into culture tubes. To these solutions, 0.1 milliliter of the Gardnerella vaginalis or Lactobacillus acidophilus suspension was then added at a concentration of around 10^6 cfu/milliliter. The culture tubes were incubated at 37° C. for 6 hours. The samples in the culture tubes were then diluted at 1, 10 and 100 times, and 100 microliters of each dilution was plated onto agar plates with WASP (Whitely Automatic Spiral Plate) spiral plating equipment from Don Whitely Scientific Limited, USA. The plates were incubated overnight at 35° C., and the numbers of colonies were counted on each plate by either ProtoCol® from Synbiosis, Frederick, Md., USA Whitely Scientific Limited, USA or by hand count. The results are shown below in Tables 2-3 and in FIG. 2,

Gardnerella vaginalis [9] = test: Plate count after 6 hours treatment (Example 3); format: cell-based; conditions: for Plate Count, G. Vaginalis: 6 hours at 37° C., n = 4
Procedure: as §2

For `O=C[C@H](O)[C@H](O)[C@H](O)CO` [D-ribose], the “Gardnerella vaginalis cell count in comparison to the control group (optical density 595 nanometers)” value (Gardnerella vaginalis [1]) was “significantly reduced”.
With `O=C(O)c1cc(O)c(O)c(O)c1` [Gallic acid, trihydroxybenzoic acid] the “Average Plate Count, Gardnerella vaginalis” value (shortened to “Average Plate Count”) (Gardnerella vaginalis [2]) was 3.43 × 10^4.
In the case of `OC[C@@H](O)[C@H](O)[C@@H](O)CO` [Xylitol in growth media, xylitol], the “Average Plate Count” value (Gardnerella vaginalis [2]) is reported as 2.40 × 10^4.
In the case of `O=C[C@H](O)[C@@H](O)[C@H](O)[C@H](O)CO` [glucose], the “zone of inhibition, Gardnerella vaginalis” value (Gardnerella vaginalis [3]) is reported as 0 mm and the “zone of inhibition, Lactobacillus acidophilus” value [4] is reported as 0 mm.
With `OC[C@@H](O)[C@@H](O)[C@H](O)[C@@H](O)CO` [sorbitol] the “zone of inhibition, Gardnerella vaginalis” value (Gardnerella vaginalis [3]) was 0 mm and the “zone of inhibition, Lactobacillus acidophilus” value [4] was 0 mm.
With `OC[C@@H](O)[C@H](O)[C@@H](O)CO` [xylitol, D-xylitol] the “Average Plate Count” value (Gardnerella vaginalis [2]) was “significant inhibition”, the “Average Plate Count” value (Gardnerella vaginalis [2]; listed as Xylitol) was 1.56 × 10^4 and the “Gardnerella vaginalis cell count in comparison to the control group (optical density 595 nanometers)” value (Gardnerella vaginalis [1]) was “significantly reduced”. For the same molecule, the “Candida albicans cell count in comparison to the control group” value (Candida albicans) was “significantly reduced”, the “effect on gelation ability of the polymer” value [5] was “did not appear to negatively impact” and the “live Trichomonas vaginalis cells” value (Trichomonas vaginalis; 3% xylitol, after 48 hours) was “No live”. For the same molecule, the “live Trichomonas vaginalis cells” value (Trichomonas vaginalis; 5% xylitol, after 48 hours) was “No live”, the “Trichomonas vaginalis cell count in comparison to the control group” value (Trichomonas vaginalis; after 24 hours, pH 6.0, 35° C. (FIG. 8)) was “significantly reduced” and the “Trichomonas vaginalis cell count in comparison to the control group” value (Trichomonas vaginalis; after 48 hours, pH 6.0, 35° C. (FIG. 9)) was “even more significant inhibitory effect”. The “inhibition of growth of Lactobacillus acidophilus (optical density, FIG. 4)” value [6] was “did not exhibit any significant inhibition”, the “inhibition of growth of Gardnerella vaginalis (optical density, FIG. 3)” value (Gardnerella vaginalis [7]) was “significant inhibition” and the “inhibition of the growth of Lactobacillus acidophilus” value ([8]; 1% and 5% xylitol, 6 hours) was “did not exhibit any significant inhibition”. The “Plate Count, L. acidophilus” value ([8]; 1% xylitol) was 3.77 ± 0.49 E+05, the “Plate Count, L. acidophilus” value ([8]; 5% xylitol) was 3.97 ± 0.36 E+05 and the “Plate Count, G. Vaginalis” value (Gardnerella vaginalis [9]; 1% xylitol) was “*1.24E+05”. For the same molecule, the “Plate Count, G. Vaginalis” value (Gardnerella vaginalis [9]; 2% xylitol) was “*1.64E+03”, the “Plate Count, G. Vaginalis” value (Gardnerella vaginalis [9]; 3% xylitol) was “*4.63E+02” and the “Plate Count, G. Vaginalis” value (Gardnerella vaginalis [9]; 4% xylitol) was “*1.03E+02”. The “Plate Count, G. Vaginalis” value (Gardnerella vaginalis [9]; 5% xylitol) was “*1.98E+01” and the “inhibition of Gardnerella vaginalis growth compared to the control group” value (Gardnerella vaginalis [9]; all five concentrations (1-5% xylitol), 6 hours) was “significant inhibition”.

Source: patent US7619008B2, “Xylitol for treatment of vaginal infections” (Kimberly-Clark Worldwide, Inc., priority 2004, dated 2009)
